Laboratory results reported in patent publication US7384789B2, “Divalent metal ion sensors and binders” (The University of North Dakota, priority 2006, dated 2008).

How the values were obtained:
[1] = Cai et al., Inorg. Chim. Acta 1997; cited from earlier work
Solubility = format: physicochemical; conditions: for solubility: solvent not given
[2] = Fluorescence emission profile with stoichiometric divalent metal ion: Cu^2+; conditions: 200 μM compound, λex/λem: compound 1 300/390 nm, compound 3 315/357 nm, compound 4 365/520 nm
Experimental: (§1) Commercially available reagents, obtained from Acros Organics and Aldrich were used as received. All solvents were distilled before use. Reactions were monitored by thin-layer chromatography (TLC) and visualization was accomplished with a UV lamp. Reaction mixtures were purified by column chromatography, performed with the indicated solvents using silica gel (230-400 mesh). The Rf values were calculated based on the eluents used for purification. The yields reported refer to chromatographically and spectroscopically pure compounds. The purity of the compounds were ascertained by GC/MS analysis (HP 5890 Series II GC fitted with HP 5971 Series Mass Selective Detector). ^1H and proton decoupled ^13C NMR spectra were recorded on a Bruker AMX 500 MHz spectrometer at ambient temperature. The fluorescence spectra were obtained using Jobin Yvon Horiba Fluorolog-3 spectrofluorometer. […] The fluorescence measurements were carried out on 3 mL samples of the sensor and 3 μL aliquots of the 200 mM metal ion solution in HEPES were added to the sample to make up the desired metal concentrations.
(§2) The influence of divalent metal ions on the fluorescence spectral profile of compound 1 is shown in FIG. 1, where the fluorescence emission spectra of 200 μM compound 1 (λex=300 nm) with stoichiometric concentrations of selected divalent metal ions. Compound 1 has a weak fluorescence emission peak around 386-390 nm, which is differently affected by different metal ions. […] In contrast, the fluorescence intensity of compound 1 decreases in the presence of Cu^2+, Ni^2+, and Co^2+.
(§3) The influence of divalent metal ions on the fluorescence spectral profile of compound 3 is shown in FIG. 3, where the fluorescence emission spectra of 200 μM […] (λex=315 nm) with stoichiometric concentrations of selected divalent metal ions. Compound 3 has a weak fluorescence emission peak around 355-360 nm, which is differently affected by different metal ions. […] In contrast, as expected, the fluorescence intensity of compound 3 decreases in the presence of Cu^2+, Ni^2+, and Co^2+. […]

[3] = Fluorescence emission profile with stoichiometric divalent metal ion: Zn^2+; conditions: for effect of Zn^2+ on fluorescence emission intensity: stoichiometric ion, λex/λem: compound 1 300/390 nm, compound 3 315/357 nm, compound 4 365/520 nm
Experimental: Commercially available reagents, obtained from Acros Organics and Aldrich were used as received. All solvents were distilled before use. Reactions were monitored by thin-layer chromatography (TLC) and visualization was accomplished with a UV lamp. Reaction mixtures were purified by column chromatography, performed with the indicated solvents using silica gel (230-400 mesh). The Rf values were calculated based on the eluents used for purification. The yields reported refer to chromatographically and spectroscopically pure compounds. The purity of the compounds were ascertained by GC/MS analysis (HP 5890 Series II GC fitted with HP 5971 Series Mass Selective Detector). ^1H and proton decoupled ^13C NMR spectra were recorded on a Bruker AMX 500 MHz spectrometer at ambient temperature. The fluorescence spectra were obtained using Jobin Yvon Horiba Fluorolog-3 spectrofluorometer. The HEPES buffer was prepared from commercially available 1M solution of the free acid and the pH was adjusted to 7.0 by the addition of KOH pellets in the presence of 0.135 M NaCl. The fluorescence measurements were carried out on 3 mL samples of the sensor and 3 μL aliquots of the 200 mM metal ion solution in HEPES were added to the sample to make up the desired metal concentrations.
as §2
The influence of divalent metal ions on the fluorescence spectral profile of compound 3 is shown in FIG. 3, where the fluorescence emission spectra of 200 μM […] (λex=315 nm) with stoichiometric concentrations of selected divalent metal ions. Compound 3 has a weak fluorescence emission peak around 355-360 nm, which is differently affected by different metal ions. […] In contrast, as expected, the fluorescence intensity of compound 3 decreases in the presence of Cu^2+, Ni^2+, and Co^2+. […] Titration of compound 3 with Zn^2+ indicates a Kd value of 2 mM (approx.).
The influence of divalent metal ions on the fluorescence spectral profile of compound is shown in FIG. 4, where the fluorescence emission spectra of 200 μM […] (λex=365 nm) with stoichiometric concentrations of selected divalent metal ions. Compound 4 has a UV absorption maximum at 425 nm. […] Excitation at shorter wavelengths e.g. at 365 nm leads to a weak emission peak around 520 nm, which is differently affected by different metal ions.

[4] = Fluorescence emission profile with stoichiometric divalent metal ion: Ca^2+; conditions: 200 μM compound, λex/λem: compound 1 300/390 nm, compound 3 315/357 nm, compound 4 365/520 nm
Experimental: as §1, §2, §3

[5] = Fluorescence emission profile with stoichiometric divalent metal ion: Ni^2+; conditions: 200 μM compound, λex/λem: compound 1 300/390 nm, compound 3 315/357 nm, compound 4 365/520 nm
Experimental: as §1, §2, §3

[6] = Spectrofluorometric titration of compound with Zn^2+ (ZnCl2); format: binding; conditions: approx.
Experimental: as §1
To determine the magnitude of Zn^2+ induced fluorescence spectral changes of compound 1 as well as its binding affinity, a detailed spectrofluorometric titration study was performed.

[7] = Fluorescence emission profile with stoichiometric divalent metal ion: Mg^2+; conditions: 200 μM compound, λex/λem: compound 1 300/390 nm, compound 3 315/357 nm, compound 4 365/520 nm
Experimental: as §1, §2, §3

[8] = Fluorescence emission profile with stoichiometric divalent metal ion: Co^2+; conditions: 200 μM compound, λex/λem: compound 1 300/390 nm, compound 3 315/357 nm, compound 4 365/520 nm
Experimental: as §1, §2, §3

[9] = Fluorescence emission profile with stoichiometric divalent metal ion: Hg^2+; conditions: 200 μM compound, λex/λem: compound 3 315/357 nm, compound 4 365/520 nm
Experimental: as §1
(§4) The influence of divalent metal ions on the fluorescence spectral profile of compound 3 is shown in FIG. 3, where the fluorescence emission spectra of 200 μM compound 1 (λex=315 nm) with stoichiometric concentrations of selected divalent metal ions. […]

[10] = Fluorescence emission profile with stoichiometric divalent metal ion: Cd^2+; conditions: 200 μM compound, λex/λem: compound 3 315/357 nm, compound 4 365/520 nm
Experimental: as §1, §4

Row | Compound | divalent metal binding [1] | solubility (Solubility) | solubility in water and methanol (Solubility; water and methanol) | effect of Cu^2+ on fluorescence emission intensity [2] | effect of Zn^2+ on fluorescence emission intensity ([3]; 200 μM compound) | effect of Ca^2+ on fluorescence emission intensity [4] | effect of Ni^2+ on fluorescence emission intensity [5] | Kd [6] [µM] | effect of Mg^2+ on fluorescence emission intensity [7] | effect of Co^2+ on fluorescence emission intensity [8] | effect of Hg^2+ on fluorescence emission intensity [9] | effect of Cd^2+ on fluorescence emission intensity [10] | Zn^2+-induced fluorescence enhancement in the presence of excess Ca^2+ ([3]; 100 fold excess of Ca^2+) | increase of fluorescence emission intensity in the presence of Zn^2+ ([3]; stoichiometric concentration of Zn^2+, 200 μM compound, λex=300 nm) | solubility in the aqueous medium (Solubility; aqueous medium)
1 | Cc1cc(N(CC(=O)O)CC(=O)O)c(O)c(N(CC(=O)O)CC(=O)O)c1 [N,N,N′,N′-tetrakis(carboxylatemethyl)-2,6-diaminocresol] | binding to only Co^2+ or Cu^2+ | – | – | – | – | – | – | – | – | – | – | – | – | – | –
2 | Zinc-2,6-diamino-(N,N,N′,N′-tetraacetate)-4-methylanisole [compound 1-Zn complex] | – | low solubility | low solubility | – | – | – | – | – | – | – | – | – | – | – | –
3 | O=C([O-])CN(CC(=O)[O-])c1cccc(N(CC(=O)[O-])CC(=O)[O-])c1.[Na+].[Na+].[Na+].[Na+] [compound 3, Sodium 1,3-diamino-(N,N,N′,N′-tetraacetate)benzene] | – | – | – | decreases | enhanced significantly | slightly enhanced | decreases | ~2000 | slightly enhanced | decreases | slightly enhanced | slightly enhanced | – | – | –
4 | Sodium 2,6-diamino-(N,N,N′,N′-tetraacetate)-3-nitroanisole [compound 4] | – | – | – | significantly quenched | substantially enhanced | slightly quenched | significantly quenched | – | slightly quenched | significantly quenched | no discernable effect | substantially enhanced | – | – | –
5 | COc1c(N(CC(=O)[O-])CC(=O)[O-])cc(C)cc1N(CC(=O)[O-])CC(=O)[O-].[K+].[K+].[K+].[K+] [compound 1, Potassium-2,6-diamino-(N,N,N′,N′-tetraacetate)-4-methylanisole] | – | readily soluble | – | decreases | most dramatic effect | only slightly increased | decreases | – | barely affected | decreases | – | – | maintained | about 10 fold | high solubility
